# How the values were obtained:
# Malassezia furfur = experiment: Anti-fungal efficacy, germ count reduction; type: cell-based; details: 0.12%
# Description: Assay of the anti-fungal efficacy of zinc pyrithione, piroctone, climbazole and sclareolide on Malassezia furfur was assayed.
# [1] = test system: Staphylococcus aureus ATCC 25923; details: cited from earlier work
# Malassezia restricta = experiment: Broth microdilution (MIC) assay, resazurin fluorescence; type: cell-based
# Description: Sclareolide antifungal potential on Malassezia restricta was evaluated by the broth microdilution method.
# Method: Malassezia restricta was routinely grown on modified Leeman-Notman (mLN) agar. The broth microdilution assay was performed following EUCAST guidelines (www.eucast.org) with slight modifications. Between five and ten colonies were suspended in a modified RPMI 1640 media supplemented with resazurin at a D.O (Density Optical) of 0.1. In a 96 well plate, serial dilutions of sclareolide (0.00023% to 0.12%), zinc pyrithione (0.015%-0.0023%) and Ketoconazol (0.5-0.015 μg/ml) were prepared in modified RPMI 1640. An equal volume of Malassezia restricta inoculum was added to the test samples at different concentrations. Following 48 h-60 h of incubation at 34° C., resazurin fluorescence was analyzed at 530 nm and 590 nm.
# Results are presented as relative fluorescence intensity compared to DMSO control. the MIC is defined as the lowest drug concentration that inhibited growth.
# [2] = test system: Pseudomonas aeruginosa ATCC 27950; details: cited from earlier work
# keratin 10 = experiment: Keratin 10 expression in ex vivo scalp skin biopsies (immunohistochemistry); type: cell-based, human; details: 0.12%
# Description: (§1) Method: CYP27B1 was assessed by immunohistochemistry with a specific antibody. Biopsies of healthy human scalp skin in culture were treated with sclareolide diluted at 0.12% in placebo (ceraphyl 368 (Ashland) applied once a day for 48 hours topically (20 μl/biopsy). Control biopsies received only ceraphyl 368. The immunostaining was performed using paraffin sections incubated in the presence of anti-CYP27B1 antibody (rabbit monoclonal, Abcam). After an hour and a half of incubation followed by rinses, the sections were incubated in the presence of the secondary anti-rabbit antibody coupled with a fluorophore (Alexa Fluor® 488, Invitrogen). The sections were then examined under a fluorescence microscope (Nikon Eclipse Ni-E microscope). CYP27B1 expression was then observed (using NiS-AR Nikon acquisition software) and quantified by image analysis (Volocity® image analysis software, Improvision).
# Method: Keratin 10 was assessed by immunohistochemistry. The protocol was the same as in example 4 with the use of anti-keratin 10 antibody (rabbit monoclonal, Abcam).
# CYP27B1 = CYP27B1 expression in ex vivo scalp skin biopsies (immunohistochemistry); type: cell-based, human
# Description: as §1
# [3] = test system: Escherichia coli ATCC 25922; details: cited from earlier work
# [4] = Solubility in surfactant solution (12% Sodium laureth sulfate/2% Cocamidopropyl betaine); type: physicochemical; details: 12% Sodium laureth sulfate (SLES)/2% Cocamidopropyl betaine (CAPB), 1 hour stirring
# [5] = test system: Enterococcus faecalis ATCC 29212; details: cited from earlier work
# total lipids = experiment: Total lipid content in ex vivo scalp skin biopsies (Nile Red staining); type: cell-based, human; details: 0.12%
# Description: as §1
# Method: total lipids were assessed by fluorescent staining by using the fluorescent dye Nile Red. The treatment of the biopsies was the same than in example 4. […] The sections were then examined under a fluorescence microscope (Nikon Eclipse Ni-E microscope). Red fluorescence was then observed (using NiS-AR Nikon acquisition software) and quantified by image analysis (Volocity® image analysis software, Improvision).
# [6] = 48 h-60 h incubation at 34° C., vs DMSO control
compound,measurement,setting,value
"CC(C)(C)C(=O)C(Oc1ccc(Cl)cc1)n1ccnc1 (stereo not shown) [Climbazole, climbazole]",Reduction % (6 h),Malassezia furfur,38.5%
same,Reduction % (24 h),Malassezia furfur,33.80%
"Cc1cc(CC(C)CC(C)(C)C)n(O)c(=O)c1 (stereo not shown) [OCT, piroctone]",Reduction % (6 h),Malassezia furfur,15.4%
same,Reduction % (24 h),Malassezia furfur,35.30%
"CC1(C)CCC[C@]2(C)[C@H]3CC(=O)O[C@]3(C)CC[C@@H]12 [sclareolide, Sclareolide]",antibacterial activity,[1],good antibacterial activity
same,concentration at which growth of Malassezia restricta was completely inhibited (MIC),Malassezia restricta; [6],0.12%
same,concentration from which growth of Malassezia restricta was significantly inhibited,Malassezia restricta; [6],0.001875%
same,antibacterial activity,[2],good antibacterial activity
same,Reduction % (6 h),Malassezia furfur,38.5%
same,Reduction % (24 h),Malassezia furfur,32.40%
same,increase in keratin 10 labelling intensity,"keratin 10; 48-hour treatment, compared to placebo, highly significant",+20%
same,Keratin 10 expression (% placebo),"keratin 10; 48 hours, placebo = 100%",120%
same,CYP27B1 protein expression (% placebo),"CYP27B1; 0.12% in ceraphyl 368, topical once a day, 48 hours, placebo = 100%",138%
same,increase in CYP27B1 labelling intensity,"CYP27B1; 0.12%, 48-hour treatment, compared to placebo, very significant",+38%
same,antibacterial activity,[3],good antibacterial activity
same,dissolution in surfactant solution,[4],could not be dissolved
same,antibacterial activity,[5],good antibacterial activity
same,increase in lipid labelling intensity,"total lipids; 48-hour treatment, compared to placebo, significant",+46%
same,Total lipid content (% placebo),"total lipids; 48 hours, placebo = 100%",146%
zinc pyrithione [ZPT],inhibition of Malassezia restricta,Malassezia restricta; tested in parallel at the same concentrations,high inhibition
same,Reduction % (6 h),Malassezia furfur,47.4%
same,Reduction % (24 h),Malassezia furfur,93.10%

# — US20250387311A1, “SCLAREOL OR SCLAREOLIDE FOR IMPROVING SCALP CONDITIONS AND HAIR GROWTH” (ISP Investments LLC, priority 2022, published 2025)
